Earlier results as cited in patent EP3738589B1, “A COMPOSITION FOR THE PREVENTION AND/OR TREATMENT OF OROPHARYNGEAL MUCOSA DISEASES” (Neilos S.r.l., priority 2019, dated 2020).

Assays:
[1] = system: BPCO
[2] = system: oral mucositis caused by chemotherapy; details: hematopoietic SCT
[3] = system: patients suffering from BPCO; details: patients suffering from BPCO treated with NAC; from 1.71 times a year
[4] = system: oral mucositis; details: patients with cancer

Row | SMILES | days of discomfort are reduced by ([1]; BPCO) [days/month] | exacerbations of the disease are reduced by ([1]; BPCO) [exacerbation/month] | reduce hospitalizations due to BPCO by ([1]; BPCO) [%] | increase in FEV1 ([1]; from 25%, after a short 4-week-therapy) [%] | incidence and grade of oral mucositis [2] | reduction in exacerbations [3] [times a year] | severity of oral mucositis [4]
1 | CC(=O)N[C@@H](CS)C(=O)O [NAC, N-acetyl-L-cysteine] | 0.56 | 0.07 | 30 | 30 | reduces the incidence and grade of oral mucositis | 0.96 | –
2 | O=C1O[C@H]([C@@H](O)CO)C(O)=C1O [vitamin C, ascorbic acid] | – | – | – | – | – | – | alleviates the severity of oral mucositis
